From a melting point compilation (Tetko et al.)

| SMILES | melting point [°C] |
| --- | --- |
| O=C(O)c1ccccc1NS(=O)(=O)c1ccc(Cl)c(Cl)c1 | 143 to 147 |
| COC(=O)C[C@H](NC(=O)OCC1c2ccccc2-c2ccccc21)C(=O)O | 115 to 117 |
| Cc1cc(NCc2ccco2)ncn1 | 95 to 97 |
| O=C(CCl)Nc1cccc(S(=O)(=O)N=C2CCCCCN2)c1 | 133 to 135 |
| FC(F)(F)c1ccc2nnc(C3CCCNC3)n2c1 (stereo unspecified) | 226 to 228 |
| O=C(O)c1ccc(CS)c(F)c1 | 136 to 138 |
| COc1cc(C=O)ccc1OCc1cccs1 | 79 to 81 |
| O=C(O)CSCc1ccccn1 | 136 to 138 |
| CCc1cc(=O)[nH]c(-c2cccc(N)c2)n1 | 139 to 141 |
| CCn1nnnc1S | 18 to 20 |
| Cn1cc(CN=[N+]=[N-])c(-c2ccc(C#N)cc2)n1 | 101 to 103 |
| Nc1ccc(S(=O)(=O)Nc2ccc(Cl)cc2)cc1 | 180 to 182 |
| Cc1cc(C(=O)O)cc(S(=O)(=O)Cl)c1F | 193 to 195 |
| O=C(O)C1CC1c1cc(Cl)cc(Cl)c1 (stereo unspecified) | 134 to 136 |
| O=C(O)C1CC(=O)N(c2ccccc2)C1 (stereo unspecified) | 191 to 193 |
| Cc1cc(NC(=O)c2ccccc2Cl)sc1C(=O)O | 223 to 225 |
| Cc1ccc(/C=C/C(=O)O)c(C)c1 | 182 to 184 |
| CN(c1ccccc1)c1ccccc1C(=O)O | 105 to 107 |
| Cc1cc(NN)nc(-c2ccccn2)n1 | 175 to 177 |
| Cc1cc(-n2c(C)cc(C(=O)CCl)c2C)no1 | 110 to 112 |
| Nc1ccc(C(=O)NCc2ccccn2)c(Cl)c1 | 159 to 161 |
| COc1nc(Cl)c(C=O)s1 | 43 to 45 |
| Cc1oc(N)c(C#N)c1C | 163 to 169 |
| N#CCc1cc(Cl)c2c(c1)OCCO2 | 102 to 104 |

| SMILES | melting point [°C] |
| --- | --- |
| O=C1Nc2cc(F)c(Cl)cc2C1=O | 256 to 258 |
| O=C(O)c1cccc(S(=O)(=O)N2CCOCC2)c1 | 198 to 200 |
| CC(C)(C)OC(=O)NCC1CCCCC12NC(=O)NC2=O (stereo unspecified) | 229 to 231 |
| CNS(=O)(=O)c1cc(OC)c(OC)cc1Br | 156 to 158 |
| COc1cccc(C(N)(C(=O)O)C(F)(F)F)c1 (stereo unspecified) | 139 to 141 |
| Cc1ccc(NS(=O)(=O)c2ccc(Cl)c([N+](=O)[O-])c2)c(C)c1 | 99 to 101 |
| Cc1nn2cnnc2c(C)c1CCC(=O)O | 253 to 255 |
| CC(C)c1noc2nc(-c3ccco3)cc(C(=O)O)c12 | 224 to 226 |
| Nc1ccc(-c2c3c(=O)[nH][nH]c(=O)c3c3n2CCC3)cc1 | 309 to 311 |
| Nc1nc2c(s1)CNCC2 | 176 to 178 |
| CCCOc1cn(-c2ccccc2)nc1C(=O)O | 119 to 121 |
| CC(C)(C)OC(=O)N1CCCc2ccc(N)cc21 | 90 to 92 |
| Cc1ccc(Oc2ccc3[nH]cccc-3c2=N)c(Br)c1 | 259 to 261 |
| COc1ccc(-c2csc(N)n2)cc1Br | 188 to 190 |
| O=S(=O)(Cl)C=Cc1ccc(Br)cc1 | 149 to 151 |
| Nc1nnc(-c2ccncc2)o1 | 239 to 241 |
| Cc1ccc(C)c(C(=O)CCl)c1 | 28 to 30 |
| CC(C)(C)c1ccc(=O)[nH]n1 | 163 to 165 |
| Cc1cc(C=O)c(C)n1C1CCCCC1 | 75 to 77 |
| O=C(O)c1ncoc1-c1ccccc1Cl | 194 to 196 |
| CCCS(=O)(=O)Nc1ccc(N)cc1 | 111 to 113 |
| CC(C)Oc1nnc(S)s1 | 105 to 107 |
| O=C(c1ccc(F)cc1)c1ccccc1Cl | 61 to 63 |
| CC(NC(=O)c1ccccc1NC(=O)CCl)c1ccccc1 (stereo unspecified) | 118 to 120 |

| SMILES | melting point [°C] |
| --- | --- |
| CC(C)(C)OC(=O)N1CCN(c2nc(N)ns2)CC1 | 196 to 198 |
| Cc1nc(-c2cccnc2)nc(Cl)c1C | 72 to 74 |
| Cc1ccc(CC(=O)O)o1 | 56 to 58 |
| CC(C(=O)O)C(C)(C)C (stereo unspecified) | 34 to 36 |
| O=C1c2ccncc2C(=O)N1CCO | 106 to 108 |
| Nc1c(Cl)ccc2nsnc12 | 89 to 91 |
| O=C(O)c1cccc(NC(=O)C2CC2)c1 | 264 to 266 |
| Cc1nc(S)nc(O)c1C | 276 to 278 |
| Cc1cc(/C=C/C(=O)O)c(C)n1-c1ccc2c(c1)OCO2 | 194 to 196 |
| CC(C)N(C(C)C)S(=O)(=O)c1ccc(NN)nc1 | 159 to 161 |
| CN(C)S(=O)(=O)c1ccc(N2CCOCC2)c(N)c1 | 174 to 176 |
| O=C(O)c1csc(-c2ccco2)n1 | 181 to 183 |
| COC(=O)c1ccc2c(c1)S(=O)(=O)N=C(C)N2 | 275 to 277 |
| COc1ccc(CCNC(C)=O)cc1S(N)(=O)=O | 194 to 196 |
| CC(C)(C)OC(=O)Nc1ccc(N)cn1 | 157 to 159 |
| NS(=O)(=O)c1ccc(NCCC(=O)O)c([N+](=O)[O-])c1 | 175 to 177 |
| O=C(O)C1CCN(S(=O)(=O)c2cccc3c2N=S=N3)CC1 | 232 to 234 |
| O=C(O)CNC(=O)C1CCCCC1 | 153 to 157 |
| COc1ccc(F)cc1C(=O)CBr | 74 to 76 |
| C#CC#CCCCCCC(=O)O | 35 to 37 |
| Cc1nc(N)ccc1I | 99 to 100 |
| Cc1ccc2nc(C)c(C(=O)O)cc2c1 | 174 to 176 |
| CNC(=S)NNC(=O)c1ccccc1 | 181 to 183 |
| CC(C)S(=O)(=O)c1ccc(F)c(C(=O)O)c1 | 139 to 141 |

| SMILES | melting point [°C] |
| --- | --- |
| CC(Cl)C(=O)Nc1ccc(Cl)cc1 (stereo unspecified) | 100 to 102 |
| CNS(=O)(=O)c1ccc(C)c(N)c1 | 83 to 85 |
| Cn1c(Cl)c(C=O)c2ccccc21 | 92 to 94 |
| CCOC(=O)Cc1nc2ccccc2[nH]1 | 179 to 181 |
| N#Cc1cccc(CNc2ccc3[nH]c(=O)[nH]c3c2)c1 | 261 to 263 |
| NS(=O)(=O)c1c(Cl)cccc1Cl | 176 to 178 |
| O=C(O)Cc1cccc(OCc2cccnc2)c1 | 139 to 141 |
| CC(=O)c1ccc(-n2c(C)c[nH]c2=O)cc1 | 203 to 205 |
| COc1ccc(C(=O)O)cc1S(=O)(=O)NCc1ccc(Cl)cc1 | 230 to 232 |
| O=S(=O)(Cl)N1CCCC2CCCCC21 (stereo unspecified) | 34 to 36 |
| Nc1ccc2c(c1)CCC(=O)N2 | 170 to 172 |
| CC(C)NC(=O)N(C)c1ccc(O)cc1 | 158 to 160 |
| Fc1cccc(CCNC2=NCCS2)c1 | 74 to 76 |
| Oc1ccc(-c2ccccc2)nc1 | 174 to 176 |
| O=C(c1cc(Cl)c[nH]1)C(Cl)(Cl)Cl | 128 to 130 |
| O=C(Cn1cccn1)NC1CCCCC1 | 116 to 118 |
| O=C(O)Cc1cn(-c2ccccc2)nc1-c1ccc(Br)cc1 | 135 to 137 |
| NC(=O)c1cccc(C=O)c1 | 108 to 110 |
| O=C(O)c1c[nH]c(Br)c1 | 119 to 121 |
| N#Cc1ccc(CN2CCc3ccccc32)cc1 | 76 to 78 |
| CC1(c2ccc(OC(F)(F)F)cc2)NC(=O)NC1=O (stereo unspecified) | 151 to 153 |
| NC(=S)NCC(F)(F)F | 154 to 156 |
| Oc1ncnc2c(F)cc(Br)cc12 | 299 to 301 |
| O=C(O)c1sc2cc(C(F)(F)F)ccc2c1Cl | 205 to 207 |

| SMILES | melting point [°C] |
| --- | --- |
| O=C1CCc2cc([N+](=O)[O-])ccc2N1 | 201 to 203 |
| O=C(CC1(C(=O)O)CCCCC1)NC1CC1 | 151 to 153 |
| O=C(O)c1cc(S(=O)(=O)N2CCOCC2)ccc1F | 201 to 203 |
| Cc1cc(S(C)(=O)=O)c(C)c(S(=O)(=O)Cl)c1 | 122 to 124 |
| CCn1c(S)nc2cc(S(=O)(=O)N3CCOCC3)ccc21 | 227 to 229 |
| ON=C1CCN(Cc2ccccc2)CC1 | 126 to 128 |
| O=[N+]([O-])c1cc2nc(Cl)ccc2cc1F | 130 to 132 |
| NNC(=O)c1cccc(S(=O)(=O)N2CCOCC2)c1 | 140 to 142 |
| CCN1N=C(C(F)(F)F)CC1=O | 169 to 171 |
| NC(=O)c1ccc(-c2nc(CCl)cs2)cc1 | 177 to 179 |
| CC(O)c1ccc(-n2cccn2)cc1 (stereo unspecified) | 92 to 94 |
| Cc1cc(Cl)c2cc(OC(F)F)ccc2n1 | 81 to 83 |
| Cc1cc(Cl)n2c(nc3ccccc32)c1C#N | 210 to 212 |
| c1csc(-c2ncc[nH]2)c1 | 191 to 193 |
| O=C(O)c1cc(CO)on1 | 129 to 131 |
| CC1(C2CCNCC2)NC(=O)NC1=O (stereo unspecified) | 243 to 245 |
| COc1ncc(F)c(O)n1 | 195 to 197 |
| NC(=S)c1cccc(S(N)(=O)=O)c1 | 152 to 154 |
| Cc1sc(N)nc1-c1ccc(OC(F)F)cc1 | 105 to 107 |
| Oc1ccccc1CNC1CCCCC1 | 61 to 63 |
| Cc1ccc(C(=O)c2cccc(S(C)(=O)=O)c2)c(C)c1 | 83 to 85 |
| Cn1cccc1C=CC(=O)O | 153 to 155 |
| CCS(=O)(=O)Nc1ccc(C(=O)O)cn1 | 236 to 238 |
| NC(=S)c1cccnc1N1CCNC(=O)C1 | 189 to 191 |

| SMILES | melting point [°C] |
| --- | --- |
| N#CCc1cc(F)cc2c1OCOC2 | 75 to 77 |
| Cc1nn(CCO)c(C(F)(F)F)c1C(=O)O | 151 to 153 |
| CC(O)c1ccc(CN)cc1 (stereo unspecified) | 87 to 89 |
| CCOc1cc(C(=O)O)ccc1OCC(=O)N1CCCCC1 | 129 to 131 |
| O=C1CNc2ccccc2C(=O)N1 | 207 to 209 |
| CN1CCC(=O)Nc2cc(F)ccc21 | 143 to 145 |
| Cc1ccc(SC2=C(C(=O)O)CCCC2)cc1 | 199 to 201 |
| N#Cc1cccc2cnccc12 | 126 to 128 |
| COc1ccc(-c2nc(N)sc2-c2ccc(OC)cc2)cc1 | 207 to 209 |
| N#CCc1ccc(-n2cccn2)cc1 | 127 to 129 |
| CC(C)(CO)N1C(=O)c2ccccc2C1=O | 65 to 67 |
| Nc1ccc(OCC2CCOCC2)cc1 | 108 to 110 |
| CCNC(=O)c1cccc(C)c1O | 64 to 66 |
| CC(C)(C)NC(=O)N1CCCc2c(C(=O)O)cccc21 | 134 to 136 |
| COCCn1c(C)c(C)c2cc(C(=O)O)ccc21 | 219 to 221 |
| CC(C)(C)OC(=O)Nc1cc(N)ccc1F | 92 to 94 |
| Oc1ccc2cncnc2c1 | 216 to 218 |
| O=C(O)c1ccc(-c2cc(F)c(F)c(F)c2)cc1 | 264 to 266 |
| COc1ccc(S(=O)(=O)NCC(=O)O)cc1OC | 173 to 175 |
| CC1(c2ccccc2)CC(=O)NC1=O (stereo unspecified) | 79 to 81 |
| CCOc1cc(/C=C/C(=O)O)ccc1OC | 164 to 166 |
